How the values were obtained:
Cos 7 cells = assay: Cell cytotoxicity CC50 and Therapeutic Index (CC50:EC50); settings: drug titration between 2 nM and 20 μM

| SMILES | Cell cytotoxicity: no toxicity up to (Cos 7 cells) | Percent inhibition PDGFRa (PDGFRa) |
| --- | --- | --- |
| Cc1ccc(NC(=O)c2ccc(CN3CCN(C)CC3)cc2)cc1Nc1nccc(-c2cncc(-c3oncc3C)c2)n1 [Compound 809] | > 20 µM |  |
| Cc1ccnc(-c2cncc(-c3ccnc(Nc4cc(NC(=O)c5ccc(CN6CCN(C)CC6)cc5)ccc4C)n3)c2)c1 [Compound 830] | > 20 µM | 100 |
| Cc1ccc(NC(=O)c2ccc(CN3CCN(C)CC3)cc2)cc1Nc1nccc(-c2cncc(-c3ccn(C)n3)c2)n1 [Compound 832] | > 20 µM | 100 |
| Cc1cc(-c2cncc(-c3ccnc(Nc4cc(NC(=O)c5ccc(CN6CCN(C)CC6)cc5)ccc4C)n3)c2)sn1 [Compound 8190] | > 20 µM | 100 |
| Cc1ccc(NC(=O)c2ccc(CN3CCN(C)CC3)cc2)cc1Nc1nccc(-c2cncc(-c3nncs3)c2)n1 [Compound 8250] | > 20 µM | 100 |
| Cc1ccc(NC(=O)c2ccc(CN3CCN(C)CC3)cc2)cc1Nc1nccc(-c2cncc(-c3nccs3)c2)n1 [Compound 8270] | > 20 µM |  |
| Cc1cnc(-c2cncc(-c3ccnc(Nc4cc(NC(=O)c5ccc(CN6CCN(C)CC6)cc5)ccc4C)n3)c2)s1 [Compound 8280] | > 20 µM | 100 |
| Cc1csc(-c2cncc(-c3ccnc(Nc4cc(NC(=O)c5ccc(CN6CCN(C)CC6)cc5)ccc4C)n3)c2)n1 [Compound 8290] |  | 100 |

— patent publication US11725005B2, “Compositions and methods for inhibiting kinases” (Inhibikase Therapeutics, Inc., priority 2015, dated 2023)
